According to patent publication US7691985B2, “Skeletal-targeted radiation to treat bone-associated pathologies” (priority 1999, dated 2010):

Test system: Multiple myeloma patients
Test: ^166Ho-DOTMP plus melphalan with or without TBI and stem cell transplant, Phase I/II (Examples 7, 11, 13)
Format: in vivo, human
Protocol: Multiple myeloma patients (≦65 yrs. of age) that have responded to initial chemotherapy or have primary refractory disease or chemotherapy responsive relapse, but who are not in refractory relapse are treated. Patients are well hydrated with fluids during the day prior to the diagnostic dose. An initial diagnostic dose of 30 mCi of ^166Ho-DOTMP is administered to confirm the selective localization to the skeleton, establish the in-vivo pharmacokinetics and provide radiation dosimetry estimates for the red marrow. Assuming >15% of the ^166Ho-DOTMP accumulates in bone following the injection, the amount of ^166Ho-DOTMP required for therapy is calculated based on delivering a specified radiation absorbed dose to the marrow. Patients receive the therapeutic dose by intravenous injection over 5-10 minutes, given over 1-3 days >48 hrs after the dosometry (test) dose.
The time line for conducting the investigation is as follows: Test dose ^166Ho-DOTMP (30 mCi); ^166Ho scan image (0, 4-6, 20-24 hr.); Blood samples for dosimetry (10, 30 min, 1, 2, 6, 20-24 hr.); Urine samples (0-6, 6-12, 12-24, 24-48 hr.); and External whole body probe (0, 2, 6, 24 and 48 hr.).
Melphalan is administered 48 hr prior to the predicted PBSC infusion based upon dosimetry assessment from the test dose. PBSC infusion is administered when bone marrow dose from ^166Ho is ≦1 cGy/hr. Patients were treated at 20, 30, 40 and prospectively 50 Gy, and with 140 mg/m^2 and 200 mg/m^2 melphalan.
The MTD was defined as the level that is associated with a true toxicity rate of 20%, where toxicity for these purposes was taken to be grade 3 or greater extramedullary drug related toxicity.
All toxicities encountered during the study will be evaluated according to Bearman criteria (Bearman et al., J Clin Oncol, 6,1562, (1988)). Graft failure is considered a grade 3 toxicity. Graft failure is defined as failure to recover granulocytes to 0.5×10^9/l or platelets 20×10^9/l within 28 days of transplant or a fall to less than these levels for 3 or more consecutive days after day 28 without other apparent cause. Hematopoietic recovery (engraftment) is defined as having a sustained granulocyte count of 0.5×10^9/l for two consecutive counts post transplant and a platelet count 20×10^9/l for seven consecutive counts post transplant, without transfusion support. The first of two counts for the granulocyte count and the first of seven counts for the platelet count are considered the day of engraftment.
Patients undergo blood stem cell infusion at the time when ongoing radiation to the marrow falls to <1 rad/hr, and at least 24 hours after melphalan infusion. The total volume of stored cells is infused into a free flowing IV line primed with normal saline. Patients are premedicated with acetaminophen 650 mg PO and diphenhydramine 50 mg PO or IV. All patients receive conventional supportive care for autologous/syngeneic blood and marrow transplantation, (such as allopurinol, menstrual suppression, prophylactic antibiotics, empiric antibiotics, IV Ig, transfusions of blood products, hyperalimentation, and the like).
Patients, afflicted with multiple myeloma, were treated according to the method of the present invention. The dosage range of radiation from the complex was 460 mCi to 4.5 Ci.
Fifty-three patients received intravenous hydration only, while 30 patients received both IV hydration and continuous bladder irrigation.
In order to achieve a complete response using protocol criteria, a patient must have a complete absence of any myeloma protein in the blood/urine and marrow post treatment. The patient must have normal bone marrow with complete resolution of plasmocytomas and no increase in bone lesions. To meet international standards, this must be maintained for 6 weeks. While response rates to a conventional high dose therapy vary widely, in general for previously treated patients, there is a range of 5-25% CR rate. […]

[1] = 140 mg/m^2 melphalan w/ TBI, 20 Gy to marrow
[2] = 140 mg/m^2 melphalan w/ TBI, 30 Gy to marrow
[3] = 140 mg/m^2 melphalan w/ TBI, 40 Gy to marrow
[4] = 140 mg/m^2 melphalan w/o TBI, 20 Gy to marrow
[5] = 140 mg/m^2 melphalan w/o TBI, 30 Gy to marrow
[6] = 140 mg/m^2 melphalan w/o TBI, 40 Gy to marrow
[7] = 200 mg/m^2 melphalan w/o TBI, 20 Gy to marrow
[8] = 200 mg/m^2 melphalan w/o TBI, 30 Gy to marrow
[9] = 200 mg/m^2 melphalan w/o TBI, 40 Gy to marrow
[10] = 40 patients who received 200 mg/m^2 melphalan and were not in CR at treatment
[11] = nine patients, 750+/−10% mCi/m^2
[12] = nine patients, dose 750 mCi/m^2 (±10%)
[13] = patients who received more than 1500 mCi
[14] = patients who received ≦1500 mCi
[15] = ≦30 Gy marrow dose, 35 evaluable patients

For `O=P([O-])(O)CN1CCN(CP(=O)(O)O)CCN(CP(=O)([O-])O)CCN(CP(=O)(O)O)CC1.[166Ho]` [^166Ho-DOTMP], the “Days to ANC > 500” value [1] was 9 days, the “Days to Platelets > 20,000” value [1] was 12 days and the “Number of Patients w/ Grade 3 Toxicity” value [1] was 0/8. The “Days to ANC > 500” value [2] was 11 days, the “Days to Platelets > 20,000” value [2] was 12 days and the “Number of Patients w/ Grade 3 Toxicity” value [2] was 1/8. The “Days to ANC > 500” value [3] was 9 days, the “Days to Platelets > 20,000” value [3] was 13 days and the “Number of Patients w/ Grade 3 Toxicity” value [3] was 0/20. For the same compound, the “Complete Response” value (140 mg/m^2 melphalan w/ TBI, all marrow doses) was 7/17, the “Days to ANC > 500” value [4] was 10 days and the “Days to Platelets > 20,000” value [4] was 10 days. The “Number of Patients w/ Grade 3 Toxicity” value [4] was 0/5, the “Days to ANC > 500” value [5] was 16 days and the “Days to Platelets > 20,000” value [5] was 10 days. For the same compound, the “Number of Patients w/ Grade 3 Toxicity” value [5] was 0/4, the “Days to ANC > 500” value [6] was 12 days and the “Days to Platelets > 20,000” value [6] was 10 days. The “Number of Patients w/ Grade 3 Toxicity” value [6] was 0/7, the “Complete Response” value (140 mg/m^2 melphalan w/o TBI, all marrow doses) was 3/14 and the patients alive (200 mg/m^2 melphalan patients, mean follow-up time 39.4 months) was “Sixty-one”. The “Days to ANC > 500” value [7] was 10 days, the “Days to Platelets > 20,000” value [7] was 11 days and the “Number of Patients w/ Grade 3 Toxicity” value [7] was 0/4. For the same compound, the “Days to ANC > 500” value [8] was 12 days, the “Days to Platelets > 20,000” value [8] was 10 days and the “Number of Patients w/ Grade 3 Toxicity” value [8] was 0/7. The “Days to ANC > 500” value [9] was 10.5 days, the “Days to Platelets > 20,000” value [9] was 10 days and the “Number of Patients w/ Grade 3 Toxicity” value [9] was 0/14. The “Complete Response” value (200 mg/m^2 melphalan w/o TBI, all marrow doses) was 8/9, the complete remission [10] was 39% and the partial response [10] was 32%. The “patients who developed grade 3-4 renal toxicity” value (83 patients) was “Twenty-five”, the “symptoms of long-term kidney dysfunction” value (83 patients, 5-12 months post-therapy) was 40% and the patient deaths (Phase I/II studies, to date) was 21. The complete response rate (across all ^166Ho-DOTMP/melphalan±TBI doses, 77 patients with response data) was 35%, the “patients with a partial response” value (across all doses, 77 patients with response data) was “Twenty-four” and the “Grade 1-3 hemorrhagic cystitis (HC) observed” value (all patients) was 24 patients. For the same compound, the “patients who developed TTP/HUS” value (all treated at 40 Gy or higher to the marrow) was “Seven”, the “cases of Grade 3-4 renal toxicities” value [11] was “no cases of Grade 3-4 renal toxicities” and the “cases of TTP/HUS” value [11] was “no cases of TTP/HUS”. The 2-year survival [12] was 100%, the CR rate [12] was 44.4% and the “Grade 1-3 hemorrhagic cystitis (HC), patients treated without continuous bladder irrigation (CBI)” value (of the 24 patients with HC) was 22 patients. The “cases of TTP and Grade 3 or high renal toxicity” value (patients administered less than 1500 mCi) was “no reported cases”, the “cases of TTP/HUS” value (patients treated at doses, 675 mCi/m^2) was “no cases of TTP/HUS occurred” and the “incidence of sustained renal dysfunction” value (patients who received less than 1500 mCi) was 23%. The CR rate [13] was 36%, the Two-year survival [13] was 67% and the CR rate [14] was 32%. For the same compound, the Two-year survival [14] was 77%, the “patients with renal dysfunction not related to TTP/HUS or progressive myeloma” value (serum creatinine >2 mg/dL twice or >3 mg/dL once) was “nine” and the tolerability (with melphalan at 200 mg/m^2) was “well tolerated”. The “survival of 12 months” value (≦30 Gy marrow dose) was 100%, the Complete Response [15] was 30% and the partial response [15] was 32%. For the same compound, the progressive disease [15] was “None” and the stable disease [15] was 32%.
